Experiment [1] has as its system PSA.
Experiment [2] relates to ID-1. The following applies: LNCaP cells, in the presence of androgen.
Experiment [3] concerns LNCaP cells. As to the method: Human prostatic cancer cell lines LNCaP, DU-145, PC-3, and Tsu-prl were obtained from ATCC. LNCaP cancer cells were maintained in humidified atmosphere of 5% CO2 in air in RPMI 1640 medium supplemented with 10% fetal calf serum (Life Technologies, Inc, Rockville, Md.), 3 mM L-glutamine, 100 μg/ml streptomycin and 100 units/ml penicillin. Other lines were maintained in DMEM containing 3 mM L-glutamine, 100 μg/ml streptomycin, 100 units/ml penicillin, and 10% FCS in humidified atmosphere of 5% CO2. To examine the effects of steroids, cells were cultured in RPMI 1640 medium containing 5% FCS treated with dextran coated charcoal (Hyclone, Logan, Utah) for 24 hs before treatment. Cells were grown in the absence or presence of 10 nM DHT for 0, 2, 4, 6, 12, 24, 48, and 72 hs. They were collected and frozen at each time point. Two hundred μl of medium were collected from each flask for PSA assay.
To verify the effect of DHT on the growth of LNCaP cells, cells at 3,000 cells/well were plated in 96-well plates for 24 hs before treatment with DHT. After 72 hs, MTT was added to each well and incubated at 37° C. for four hs. At the end of incubation, the supernatant was removed and 100 μl DMSO was added to each well to dissolve […]. Plates were subsequently read in a plate reader at […].

Experiment [4] deals with PSA. The following applies: LNCaP cells, mRNA.
Experiment [5] deals with ID-3. Particulars: LNCaP cells, in the presence of androgen.

The record followed here is patent US20020182614A1, “Expression analysis of inhibitor of differentiation nucleic acids and polypeptides useful in the diagnosis and treatment of prostate cancer” (priority 2000, published 2002).

For `C[C@]12CCC(=O)C[C@@H]1CC[C@@H]1[C@@H]2CC[C@]2(C)[C@@H](O)CC[C@@H]12` [DHT, dihydrotestosterone], in experiment [1], the PSA production entry is on record as “increased in a dose-dependent manner”, the “time at which PSA signal was first detected” value amounted to 12 h and the “time of maximal PSA level” value was “about 48 hs”. Further, the ID-1 expression level entry in experiment [2] was “reduced”. The growth-stimulatory effect entry in experiment [3] (10 nM DHT) is recorded as “robust growth-stimulatory effect”. In addition, the “growth of LNCaP cells” value in experiment [3] (MTT assay, FIG. 1A) is “stimulated”. Also, in experiment [4] (12 hours), the “PSA expression increase relative to control” value was 3 fold. The “PSA expression induction relative to control” value in experiment [4] (72 hours) is “approximately 4 fold”. Besides, the ID-3 expression level result in experiment [5] is reported as “reduced”.
